What was measured:
[1] = In vitro dissolution study (paddle method); type: physicochemical; details: 0.3% SDS medium, 37 °C
Description: The dissolution Apparatus II (stirring paddle method) was utilized for the in vitro dissolution studies at a rotation speed of 100 ± 1 rpm in 250 mL 0.3% (w/v) sodium dodecyl sulfate (SDS) aqueous solution medium with a ZRS-8G dissolution tester (Tianjin Haiyida Technology Co., Ltd, Tianjin, China). All experiments were performed at 37 ± 0.5 °C. The OBB-ASDs samples were weighed to be equivalent to 2 mg of OBB. At predetermined time points (0, 5, 10, 20, 30, 60, and 90 min), 0.5 mL of sample solution was taken out and replaced with the same volume of fresh SDS solution (37 ± 0.5 °C). After being filtered through a 0.22 μm syringe filter, the filtered samples were collected and analyzed by HPLC.

[2] = In vivo oral bioavailability study; design: species or system SD rats; details: male, rat plasma OBB, 100 mg/kg, n = 6, mean ± SD
Description: Male SD rats weighing 220 ± 15 g were obtained from the Guangdong Medical Laboratory Animal Center (GDMLAC, Guangzhou, China). After fasting overnight, six rats were taken in each group, based on respective treatment at a dose of 100 mg/kg each: OBB-HPMCAS and OBB-SUS (OBB suspension). After isoflurane anesthesia, blood samples were collected from the posterior orbital venous plexus at 5, 10, 20, 30, 60, 90, 120, 180, 240, 360, 480, 720, and 1440 min, respectively. After centrifugation (12,000 rpm, 5 min), plasma was collected and stored at − 80 °C for further analysis. For deproteinization of plasma, ethyl acetate (200 μL) was added to the mixture and vortexed for 3 min. After centrifugation for […], the supernatant was collected and vacuum dried at 40 °C, − 0.8 Mpa. The residue was redissolved with 100 μL methanol/water (50:50, v/v). After centrifugation (12,000 rpm, 10 min), the supernatant was analyzed by LC–MS/MS system. Pharmacokinetic parameters were calculated based on the plasma pharmacokinetics of OBB. The peak concentration (Cmax), time of the peak concentration (Tmax), half-life (T1/2), and area under the profile from time 0 to 24 h (AUC0-24), were calculated using a DAS software (Version 2.0; Drug And Statistics, Shanghai, China, RRID: SCR_022672).

[3] = system: non-alcoholic fatty liver disease (NAFLD); design: method as in PMID 33831691; details: cited from earlier work
[4] = system: mRNA expression of TLR4, MyD88, IL-1β, and IL-6; assay: LPS/D-GalN-induced ALI, quantitative PCR of liver tissues; type: in vivo, C57BL/6 mice; details: P < 0.01
Description: All mice were randomly divided into six groups (n = 8): normal control group (NC); LPS/D-GalN group; OBB-ASDs25 group (25 mg/kg OBB-HPMCAS); OBB-ASDs50 group (50 mg/kg OBB-HPMCAS); OBB-SUS group (50 mg/kg OBB suspension); Silymarin group (100 mg/kg Silymarin). The drug dosage design for the ALI trial was primarily based on our previous research findings[25] and preclinical experiments. Except for NC and LPS/D-GalN groups, all other groups of mice were respectively pretreated by gavage with the corresponding dose of OBB-ASDs, OBB-SUS, and Silymarin once daily for 7 consecutive days. Mice in NC and LPS/D-GalN group were given the same volume of saline by intragastric administration. At 2 h postdose, all mice (except the NC group) were exposed to 30 μg/kg LPS and 600 mg/kg D-GalN. Mice in NC group were received the same volume of PBS intraperitoneally. After challenging for 6 h, blood samples were collected from the eyeball vein under 2% sodium pentobarbital anesthesia. Subsequently, the liver was immediately dissected, weighed, washed with saline, and stored at - 80 °C until further analyzed. […] Quantitative PCR was performed on an Applied Biosystems 7500 Real-Time system (ABI 7500, RRID: SCR_018051). Primer sequences against mouse cDNAs used in qPCR were listed as follows: TLR4, [NT] (reverse); MyD88, […] (reverse); IL-6, [NT] (reverse); IL-1β, [NT] (reverse); and GAPDH, […] (reverse).

[5] = system: ALI challenged by LPS/D-GalN; design: method as in PMID 35691465; details: previous research ref 8; cited from earlier work
[6] = Preliminary experiment: absorption and oral bioavailability; type: in vivo; details: pure OBB
[7] = design: method as in PMID 30599908; details: cited from earlier work
[8] = system: LPS/D-GalN-induced acute liver injury (ALI) mice; assay: LPS/D-GalN-induced ALI, liver function analysis (serum ALT, AST); type: in vivo, C57BL/6 mice; details: gavage once daily 7 days; OBB-ASDs 25 and 50 mg/kg, OBB-SUS 50 mg/kg, Silymarin 100 mg/kg; P < 0.05
Description: (§1) All mice were randomly divided into six groups (n = 8): normal control group (NC); LPS/D-GalN group; OBB-ASDs25 group (25 mg/kg OBB-HPMCAS); OBB-ASDs50 group (50 mg/kg OBB-HPMCAS); OBB-SUS group (50 mg/kg OBB suspension); Silymarin group (100 mg/kg Silymarin). The drug dosage design for the ALI trial was primarily based on our previous research findings[25] and preclinical experiments. Except for NC and LPS/D-GalN groups, all other groups of mice were respectively pretreated by gavage with the corresponding dose of OBB-ASDs, OBB-SUS, and Silymarin once daily for 7 consecutive days. Mice in NC and LPS/D-GalN group were given the same volume of saline by intragastric administration. At 2 h postdose, all mice (except the NC group) were exposed to 30 μg/kg LPS and 600 mg/kg D-GalN. Mice in NC group were received the same volume of PBS intraperitoneally. After challenging for 6 h, blood samples were collected from the eyeball vein under 2% sodium pentobarbital anesthesia. Subsequently, the liver was immediately dissected, weighed, washed with saline, and stored at − 80 °C until further analyzed.
After centrifugated at 3000 g for 10 min, serum was acquired and the activities of ALT and AST were measured using commercial kits (Nanjing Jiancheng, China) following the manufacturer’s instructions.

[9] = system: hepatic inflammatory mediators and oxidative stress in ALI mice; assay: LPS/D-GalN-induced ALI, liver biochemical assessment (oxidative and inflammatory stress); type: in vivo, C57BL/6 mice
Description: as §1
Fresh liver tissues were homogenized in Tris–HCl buffer (pH 7.4) and centrifuged at 4500 rpm for 15 min (4 °C). Subsequently, the supernatants were collected and assayed for MDA, SOD, GSH, MCP-1, TNF-α, IL-1β, and IL-6 using its specific commercially available assay kit following the manufacturer’s instructions.

[10] = system: LPS/D-GalN-induced acute liver injury (ALI) mice; assay: LPS/D-GalN-induced ALI, liver pathological changes (H&E); type: in vivo, C57BL/6 mice; details: gavage once daily 7 days; OBB-ASDs 25 and 50 mg/kg, OBB-SUS 50 mg/kg, Silymarin 100 mg/kg
Description: as §1
Liver tissue pathology was evaluated by regular hematoxylin–eosin (H&E) staining. […] According to the scoring system, liver injury was evaluated by pathologists blinded to the experimental protocol. Scores were determined as Dkhil et al. previously described (Table 3)[26].

kidneys = assay: Chronic nephrotoxicity assessment (kidney HE staining); type: in vivo, C57BL/6 mice; details: mice, oral, 50 mg/kg, continuous administration for 4, 8, and 16 weeks
Description: Male C57BL/6 mice were orally administered OBB and OBB-HPMCAS at a dose of 50 mg/kg for 16 weeks. Kidney tissues were collected at 4, 8, and 16 weeks for HE staining to observe the long-term effects of OBB administration on the kidneys.

[11] = higher in LPS/D-GalN challenged mice
[12] = qRT-PCR, elevation after LPS/D-GalN exposure
[13] = compared with the LPS/D-GalN group
[14] = pretreatment 7 days, OBB-ASDs 25 and 50 mg/kg, OBB-SUS 50 mg/kg, Silymarin 100 mg/kg, vs LPS/D-GalN group

COc1ccc2cc3n(c(=O)c2c1OC)CCc1cc2c(cc1-3)OCO2 [OBB, 8-Oxyberberine]
release / dissolution rate, pure OBB compared with formulations [1]: significantly slower | Cmax [2]: 169 ± 18.6 ng/mL | Tmax [2]: 4.67 ± 0.52 h | half-life [2]: 2.99 ± 0.42 h | AUC(0-t) ([2]; read-out: AUC0-24): 1260 ± 130 ng·h/mL | effect on non-alcoholic fatty liver disease (NAFLD) [3]: pronounced therapeutic effect | MyD88 mRNA expression (real-time PCR) [4, 11]: restored | TLR4 mRNA expression (real-time PCR) [4, 11]: restored | IL-1β mRNA expression level in liver [4, 12]: markedly restore | IL-6 mRNA expression level in liver [4, 12]: markedly restore | effect on ALI challenged by LPS/D-GalN [5]: effectively attenuated | absorption and oral bioavailability [6]: poor | solubility in water [7]: poorly soluble in water | serum ALT level vs LPS/D-GalN group [8]: extremely reduced | serum AST level vs LPS/D-GalN group [8]: extremely reduced | hepatic CAT content [9, 13]: increasing | hepatic GSH content [9, 13]: increasing | hepatic MDA level [9, 13]: dramatically suppressed | hepatic SOD content [9, 13]: increasing | IL-1β level in liver [9, 14]: largely decreased | IL-6 level in liver [9, 14]: largely decreased | MCP-1 level in liver [9, 14]: largely decreased | TNF-α level in liver [9, 14]: largely decreased | liver tissue injury (H&E staining) vs model group [10]: conspicuously mitigated | kidney damage (HE staining) (kidneys): no significant kidney damage

From publication PMC11213902, “Enhancing hepatoprotective action: oxyberberine amorphous solid dispersion system targeting TLR4” (Scientific Reports, 2024)
